Assay results published in patent publication US20020137929A1, “1 - (3-heterocyclylphenyl) isothiourea, -isourea, -guanidine and -amidine herbicidal agents” (Intellectual Property Department, BASF Aktiengesellschaft, priority 1998, published 2002).

Columns and labels:
[1] = system: ECHCG (Barnyardgrass); experiment: Postemergence herbicidal evaluation; type: in vivo, Echinochloa crus-galli; conditions: postemergence
Summary of the method: (§1)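 Scores (0–9) reflect plant stand, vigor, malformation, size, chlorosis and general appearance relative to control, read 4 to 5 weeks after treatment and averaged where tests were repeated. Application: about 0.0156–0.500 kg/ha sprayed at 40 psi onto two-week seedlings.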

[2] = system: CASOB (Sicklepod); experiment: Preemergence herbicidal evaluation; type: in vivo, Cassia obtusifolia; conditions: rated 4-5 weeks after treatment
Summary of the method: (§2)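 Sown cups got a single aqueous acetone spray of test compound (roughly 0.0156–0.500 kg/ha) before seedlings emerged. Evaluation, 4–5 weeks on, used a 0–9 visual scale covering plant stand, vigor, size, malformation, chlorosis and general appearance compared with controls.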

[3] = system: ZEAMX (Corn, Field); experiment: Preemergence herbicidal evaluation; type: in vivo, Zea mays; conditions: rated 4-5 weeks after treatment
Summary of the method: as §2

[4] = system: CHEAL (Lambsquarters, Common); experiment: Postemergence herbicidal evaluation; type: in vivo, Chenopodium album; conditions: postemergence
Summary of the method: as §1

[5] = system: ECHCG (Barnyardgrass); experiment: Preemergence herbicidal evaluation; type: in vivo, Echinochloa crus-galli; conditions: rated 4-5 weeks after treatment
Summary of the method: as §2

[6] = system: SETVI (Foxtail, Green); experiment: Postemergence herbicidal evaluation; type: in vivo, Setaria viridis; conditions: postemergence
Summary of the method: as §1

[7] = system: GLXMAW (Soybean, Williams); experiment: Preemergence herbicidal evaluation; type: in vivo, Glycine max, (L.) Merr. cv Williams; conditions: rated 4-5 weeks after treatment
Summary of the method: as §2

[8] = system: IPOHE (Morningglory, Ivyleaf); experiment: Postemergence herbicidal evaluation; type: in vivo, Ipomoea hederacea; conditions: postemergence
Summary of the method: as §1

[9] = system: IPOHE (Morningglory, Ivyleaf); experiment: Preemergence herbicidal evaluation; type: in vivo, Ipomoea hederacea; conditions: rated 4-5 weeks after treatment
Summary of the method: as §2

[10] = system: ZEAMX (Corn, Field); experiment: Postemergence herbicidal evaluation; type: in vivo, Zea mays; conditions: postemergence
Summary of the method: as §1

[11] = system: TRZAWR (Wheat, Winter, cv Riband); experiment: Preemergence herbicidal evaluation; type: in vivo, Triticum aestivum; conditions: rated 4-5 weeks after treatment
Summary of the method: as §2

[12] = system: ORYSAT (Rice, Tebonnet); experiment: Postemergence herbicidal evaluation; type: in vivo, Oryza sativa, (L.) Tebonnet; conditions: postemergence
Summary of the method: as §1

[13] = system: CHEAL (Lambsquarters, Common); experiment: Preemergence herbicidal evaluation; type: in vivo, Chenopodium album; conditions: rated 4-5 weeks after treatment
Summary of the method: as §2

[14] = system: ABUTH (Velvetleaf); experiment: Postemergence herbicidal evaluation; type: in vivo, Abutilon theophrasti; conditions: postemergence
Summary of the method: as §1

[15] = system: ABUTH (Velvetleaf); experiment: Preemergence herbicidal evaluation; type: in vivo, Abutilon theophrasti; conditions: rated 4-5 weeks after treatment
Summary of the method: as §2

Question: With `CCOC(=O)CN1C(=O)C(CC(=O)O)SC1=Nc1cc(N2C(=O)CC(C(F)(F)F)CC2=O)c(F)cc1Cl` (stereo not drawn) [Compound 170, 2-{{2-Chloro-5-[2,6-dioxo-4-(trifluoromethyl)-piperidino]-4-fluorophenyl}imino}-4-oxo-3,5-thiazolidinediacetic acid, 3-ethyl ester] as the compound, how does the “Herbicidal rating ECHCG” value ([1]; rate 0.0156 kg/ha) read?
Answer: 1.0

Question: What about the “Herbicidal rating ECHCG” value ([1]; rate 0.0313 kg/ha) of the same compound?
Answer: 1.0

Question: And the “Herbicidal rating ECHCG” value ([1]; rate 0.0625 kg/ha)?
Answer: 1.0

Question: What about the “Preemergence herbicidal rating CASOB” value ([2]; 0.0156 kg/ha) of the same compound?
Answer: 0.0

Question: And the “Preemergence herbicidal rating CASOB” value ([2]; 0.0313 kg/ha)?
Answer: 0.0

Question: And the “Preemergence herbicidal rating CASOB” value ([2]; 0.0625 kg/ha)?
Answer: 0.0

Question: What about the “Preemergence herbicidal rating CASOB” value ([2]; 0.1250 kg/ha) of the same compound?
Answer: 3.0

Question: And the “Preemergence herbicidal rating CASOB” value ([2]; 0.2500 kg/ha)?
Answer: 3.0

Question: What about the “Preemergence herbicidal rating ZEAMX” value ([3]; 0.0156 kg/ha) of the same compound?
Answer: 5.0

Question: What about the “Preemergence herbicidal rating ZEAMX” value ([3]; 0.0313 kg/ha) of the same compound?
Answer: 7.0

Question: What about the “Preemergence herbicidal rating ZEAMX” value ([3]; 0.0625 kg/ha) of the same compound?
Answer: 8.0

Question: What about the “Preemergence herbicidal rating ZEAMX” value ([3]; 0.1250 kg/ha) of the same compound?
Answer: 9.0

Question: What about the “Preemergence herbicidal rating ZEAMX” value ([3]; 0.2500 kg/ha) of the same compound?
Answer: 9.0

Question: And the “Herbicidal rating CHEAL” value ([4]; rate 0.0156 kg/ha)?
Answer: 4.0

Question: And the “Herbicidal rating CHEAL” value ([4]; rate 0.0313 kg/ha)?
Answer: 9.0

Question: And the “Herbicidal rating CHEAL” value ([4]; rate 0.0625 kg/ha)?
Answer: 9.0

Question: And the “Preemergence herbicidal rating ECHCG” value ([5]; 0.0156 kg/ha)?
Answer: 3.0

Question: What about the “Preemergence herbicidal rating ECHCG” value ([5]; 0.0313 kg/ha) of the same compound?
Answer: 9.0

Question: What about the “Preemergence herbicidal rating ECHCG” value ([5]; 0.0625 kg/ha) of the same compound?
Answer: 9.0

Question: What about the “Preemergence herbicidal rating ECHCG” value ([5]; 0.1250 kg/ha) of the same compound?
Answer: 9.0

Question: And the “Preemergence herbicidal rating ECHCG” value ([5]; 0.2500 kg/ha)?
Answer: 9.0

Question: What about the “Herbicidal rating SETVI” value ([6]; rate 0.0156 kg/ha) of the same compound?
Answer: 6.0

Question: And the “Herbicidal rating SETVI” value ([6]; rate 0.0313 kg/ha)?
Answer: 9.0

Question: What about the “Herbicidal rating SETVI” value ([6]; rate 0.0625 kg/ha) of the same compound?
Answer: 9.0

Question: And the “Preemergence herbicidal rating GLXMAW” value ([7]; 0.0156 kg/ha)?
Answer: 1.0

Question: What about the “Preemergence herbicidal rating GLXMAW” value ([7]; 0.0313 kg/ha) of the same compound?
Answer: 4.0

Question: And the “Preemergence herbicidal rating GLXMAW” value ([7]; 0.0625 kg/ha)?
Answer: 4.0

Question: What about the “Preemergence herbicidal rating GLXMAW” value ([7]; 0.1250 kg/ha) of the same compound?
Answer: 5.0

Question: What about the “Preemergence herbicidal rating GLXMAW” value ([7]; 0.2500 kg/ha) of the same compound?
Answer: 8.0

Question: What about the “Herbicidal rating IPOHE” value ([8]; rate 0.0156 kg/ha) of the same compound?
Answer: 9.0

Question: And the “Herbicidal rating IPOHE” value ([8]; rate 0.0313 kg/ha)?
Answer: 9.0

Question: What about the “Herbicidal rating IPOHE” value ([8]; rate 0.0625 kg/ha) of the same compound?
Answer: 9.0

Question: And the “Preemergence herbicidal rating IPOHE” value ([9]; 0.0156 kg/ha)?
Answer: 3.0

Question: What about the “Preemergence herbicidal rating IPOHE” value ([9]; 0.0313 kg/ha) of the same compound?
Answer: 7.0

Question: And the “Preemergence herbicidal rating IPOHE” value ([9]; 0.1250 kg/ha)?
Answer: 7.0

Question: What about the “Preemergence herbicidal rating IPOHE” value ([9]; 0.2500 kg/ha) of the same compound?
Answer: 9.0

Question: What about the “Herbicidal rating ZEAMX” value ([10]; rate 0.0156 kg/ha) of the same compound?
Answer: 5.0

Question: And the “Herbicidal rating ZEAMX” value ([10]; rate 0.0313 kg/ha)?
Answer: 6.0

Question: What about the “Herbicidal rating ZEAMX” value ([10]; rate 0.0625 kg/ha) of the same compound?
Answer: 6.0

Question: And the “Preemergence herbicidal rating TRZAWR” value ([11]; 0.0156 kg/ha)?
Answer: 0.0

Question: What about the “Preemergence herbicidal rating TRZAWR” value ([11]; 0.0313 kg/ha) of the same compound?
Answer: 6.0

Question: And the “Preemergence herbicidal rating TRZAWR” value ([11]; 0.0625 kg/ha)?
Answer: 7.0

Question: What about the “Preemergence herbicidal rating TRZAWR” value ([11]; 0.1250 kg/ha) of the same compound?
Answer: 8.0

Question: What about the “Preemergence herbicidal rating TRZAWR” value ([11]; 0.2500 kg/ha) of the same compound?
Answer: 9.0

Question: And the “Herbicidal rating ORYSAT” value ([12]; rate 0.0156 kg/ha)?
Answer: 2.0

Question: What about the “Herbicidal rating ORYSAT” value ([12]; rate 0.0313 kg/ha) of the same compound?
Answer: 2.0

Question: And the “Herbicidal rating ORYSAT” value ([12]; rate 0.0625 kg/ha)?
Answer: 2.5

Question: And the “Preemergence herbicidal rating CHEAL” value ([13]; 0.0156 kg/ha)?
Answer: 9.0

Question: And the “Preemergence herbicidal rating CHEAL” value ([13]; 0.0313 kg/ha)?
Answer: 9.0

Question: And the “Preemergence herbicidal rating CHEAL” value ([13]; 0.0625 kg/ha)?
Answer: 9.0

Question: And the “Preemergence herbicidal rating CHEAL” value ([13]; 0.1250 kg/ha)?
Answer: 9.0

Question: And the “Preemergence herbicidal rating CHEAL” value ([13]; 0.2500 kg/ha)?
Answer: 9.0

Question: What about the “Herbicidal rating ABUTH” value ([14]; rate 0.0156 kg/ha) of the same compound?
Answer: 9.0

Question: What about the “Herbicidal rating ABUTH” value ([14]; rate 0.0313 kg/ha) of the same compound?
Answer: 9.0

Question: What about the “Herbicidal rating ABUTH” value ([14]; rate 0.0625 kg/ha) of the same compound?
Answer: 9.0

Question: And the “Preemergence herbicidal rating ABUTH” value ([15]; 0.0156 kg/ha)?
Answer: 0.0

Question: What about the “Preemergence herbicidal rating ABUTH” value ([15]; 0.0313 kg/ha) of the same compound?
Answer: 6.0

Question: And the “Preemergence herbicidal rating ABUTH” value ([15]; 0.0625 kg/ha)?
Answer: 9.0

Question: And the “Preemergence herbicidal rating ABUTH” value ([15]; 0.1250 kg/ha)?
Answer: 9.0

Question: And the “Preemergence herbicidal rating ABUTH” value ([15]; 0.2500 kg/ha)?
Answer: 9.0
